Measured values: patent publication US11046691B1 (IDEAYA BIOSCIENCES, INC., priority 2018, dated 2021)

Target: hMAT2A (Homo sapiens (Human), UniProt P31153)
Experiment: Phosphate Sensor Fluorescence Assay (MAT2A enzyme inhibition)
Format: biochemical
Details: L-methionine 500 uM, ATP 500 uM
How it was run: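 Recombinant MAT2A preincubated 15 min at room temperature with compound, then reacted 1 h at room temperature with 500 uM L-methionine and 500 uM ATP in Tris pH 7.5 buffer containing PNP/7-MEG.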

Sequence of hMAT2A (P31153 whole entry): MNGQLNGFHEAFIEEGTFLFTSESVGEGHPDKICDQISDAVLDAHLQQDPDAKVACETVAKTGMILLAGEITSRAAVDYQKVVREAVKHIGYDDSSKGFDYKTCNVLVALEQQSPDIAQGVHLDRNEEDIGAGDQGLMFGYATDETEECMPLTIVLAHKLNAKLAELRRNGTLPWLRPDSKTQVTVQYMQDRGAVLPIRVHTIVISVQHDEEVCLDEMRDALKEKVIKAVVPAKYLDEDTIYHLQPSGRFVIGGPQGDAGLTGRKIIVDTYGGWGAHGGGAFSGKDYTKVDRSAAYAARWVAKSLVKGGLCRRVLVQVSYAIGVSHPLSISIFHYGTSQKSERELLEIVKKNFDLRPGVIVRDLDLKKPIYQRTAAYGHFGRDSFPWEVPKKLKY

| Structure (SMILES) | IC50 (class symbols) [µM] | IC50 (numeric bound) [µM] |
| --- | --- | --- |
| C[C@@]1(O)CCN(c2nc(=O)n(-c3ccccc3)c3cc(Cl)ccc23)C1 [Example 217, 4-((3R)-3-hydroxy-3-methylpyrrolidin-1-yl)-7-chloro-1-phenylhydroquinazolin-2-one] | 0.2 to 0.5 |  |
| CNc1nc(=O)n(-c2ccccc2Cl)c2cc(Cl)ccc12 [Example 218, 7-chloro-1-(2-chlorophenyl)-4-(methylamino)quinazolin-2(1H)-one] | < 0.2 |  |
| CNc1nc(=O)n(-c2ccccc2C#N)c2cc(Cl)ccc12 [Example 219, 2-(7-chloro-4-(methylamino)-2-oxo-quinazolin-1(2H)-yl)benzonitrile] | 0.2 to 0.5 |  |
| CN(C)C(=O)CN(C)c1nc(=O)n(-c2ccccc2)c2cc(Cl)ccc12 [Example 220, 2-((7-chloro-2-oxo-1-phenyl-1,2-dihydroquinazolin-4-yl)(methyl)amino)-N,N-dimethylacetamide] | 1 to 10 |  |
| CNC(=O)CN(C)c1nc(=O)n(-c2ccccc2)c2cc(Cl)ccc12 [Example 221, 2-((7-chloro-2-oxo-1-phenyl-1,2-dihydroquinazolin-4-yl)(methyl)amino)-,N-methylacetamide] | 1 to 10 |  |
| O=c1nc(N2CC3CC3C2)c2ccc(Cl)cc2n1-c1ccccc1 (stereo not shown) [Example 222, 4-(3-azabicyclo[3.1.0]hex-3-yl)-7-chloro-1-phenylhydroquinazolin-2-one] | < 0.2 |  |
| CC1CCN1c1nc(=O)n(-c2ccccc2)c2cc(Cl)ccc12 (stereo not shown) [Example 223, 7-chloro-4-(2-methylazetidin-1-yl)-1-phenylhydroquinazolin-2-one] | < 0.2 |  |
| O=C(O)[C@H]1CCCN1c1nc(=O)n(-c2ccccc2)c2cc(Cl)ccc12 [Example 224, (2R)-1-(7-chloro-2-oxo-1-phenylhydro-quinazolin-4-yl)pyrrolidine-2-carboxylic acid] |  | > 10 |
| CNc1nc(=O)n(-c2ccccc2Br)c2cc(Cl)ccc12 [Example 225, 1-(2-bromophenyl)-7-chloro-4-(methylamino)quinazolin-2-one] | < 0.2 |  |
| CNc1nc(=O)n(-c2ccccc2OC)c2cc(Cl)ccc12 [Example 226, 7-chloro-1-(2-methoxyphenyl)-4-(methylamino)hydroquinazolin-2-one] | < 0.2 |  |
| CN(C)c1nc(=O)n(-c2cccc(CCCc3ccccc3)c2)c2cc(Cl)ccc12 [Example 227, 4-(dimethylamino)-7-chloro-1-[3-(3-phenylpropyl)phenyl]hydroquinazolin-2-one] | < 0.2 |  |
| CN(C)c1nc(=O)n(-c2ccccc2)c2cc(-c3cscn3)ccc12 [Example 228, 4-(dimethylamino)-1-phenyl-7-(1,3-thiazol-4-yl)hydroquinazolin-2-one] |  | > 10 |
| O=c1[nH]c(=O)n(-c2ccc(O)cc2)c2cc(Cl)ccc12 [Example 229, 7-chloro-1-(4-hydroxyphenyl)-1,3-dihydroquinazoline-2,4-dione] |  | > 10 |
| COC1CCN(c2nc(=O)n(-c3ccccc3)c3cc(Cl)ccc23)C1 (stereo not shown) [Example 230, 7-chloro-4-(3-methoxypyrrolidin-1-yl)-1-phenylquinazolin-2(1H)-one] | < 0.2 |  |
| CN(C)C(=O)CNc1nc(=O)n(-c2ccccc2)c2cc(Cl)ccc12 [Example 231, 2-[(7-chloro-2-oxo-1-phenyl-1,2-dihydroquinazolin-4-yl)amino]-N,N-dimethylacetamide] | 1 to 10 |  |
| O=c1nc(NCC2COC2)c2ccc(Cl)cc2n1-c1ccccc1 [Example 232, 7-chloro-4-[(oxetan-3-ylmethyl)amino]-1-phenylhydroquinazolin-2-one] | < 0.2 |  |
| Cn1ccc(CNc2nc(=O)n(-c3ccccc3)c3cc(Cl)ccc23)n1 [Example 233, 7-chloro-4-1{[(1-methylpyrazol-3-yl)-methyl]amino}-1-phenylhydro-quinazolin-2-one] | < 0.2 |  |
| CN(Cc1ccncc1)c1nc(=O)n(-c2ccccc2)c2cc(Cl)ccc12 [Example 234, 7-chloro-4-[methyl(pyridin-4-ylmethyl)-amino]-1-phenylhydroquinazolin-2-one] | < 0.2 |  |
| CN(Cc1cccnc1)c1nc(=O)n(-c2ccccc2)c2cc(Cl)ccc12 [Example 235, 7-chloro-4-[methyl(pyridin-3-ylmethyl)-amino]-1-phenylhydroquinazolin-2-one] | < 0.2 |  |
| CN(Cc1ccccn1)c1nc(=O)n(-c2ccccc2)c2cc(Cl)ccc12 [Example 236, 7-chloro-4-[methyl(pyridin-2-ylmethyl)-amino]-1-phenylhydroquinazolin-2-one] |  | > 10 |
| CN(CC(F)(F)F)c1nc(=O)n(-c2ccccc2)c2cc(Cl)ccc12 [Example 237, 7-chloro-4-[methyl(2,2,2-trifluoroethyl)-amino]-1-phenylhydroquinazolin-2-one] | < 0.2 |  |
| CC1(C)CCN(c2nc(=O)n(-c3ccccc3)c3cc(Cl)ccc23)C1 [Example 238, 4-(3,3-dimethylpyrrolidin-1-yl)-7-chloro-1-phenylhydroquinazolin-2-one] | < 0.2 |  |

| Structure (SMILES) | IC50 (class symbols) [µM] | IC50 (numeric bound) [µM] |
| --- | --- | --- |
| O=c1nc(N2CC[C@@H](O)C2)c2ccc(Cl)cc2n1-c1ccccc1 [Example 239, 4-((3R)-3-hydroxypyrrolidinyl)-7-chloro-1-phenylhydroquinazolin-2-one] | < 0.2 |  |
| NC(=O)[C@@H]1CCCN1c1nc(=O)n(-c2ccccc2)c2cc(Cl)ccc12 [Example 240, (2S)-1-(7-chloro-2-oxo-1-phenylhydro-quinazolin-4-yl)pyrrolidine-2-carboxamide] | 1 to 10 |  |
| NC(=O)[C@H]1CCCN1c1nc(=O)n(-c2ccccc2)c2cc(Cl)ccc12 [Example 241, (2R)-1-(7-chloro-2-oxo-1-phenylhydro-quinazolin-4-yl)pyrrolidine-2-carboxamide] | 1 to 10 |  |
| Cc1nc(=O)n(-c2ccccc2)c2cc(Cl)ccc12 [Example 242, 7-chloro-4-methyl-1-phenylhydro-quinazolin-2-one] | 0.5 to 1 |  |
| CNc1nc(=O)n(-c2ccccc2)c2cc(Cl)nnc12 [Example 243, 3-chloro-8-(methylamino)-5-phenyl-5-hydropyrimidino[5,4-c]pyridazin-6-one] |  | > 10 |
| CN(C)c1nc(=O)n(-c2ccccc2Cl)c2nc(C(F)(F)F)ccc12 [Example 244, 1-(2-chlorophenyl)-4-(dimethylamino)-7-(trifluoromethyl)pyrido[2,3-d]-pyrimidin-2(1H)-one] | < 0.2 |  |
| O=c1nc(NC2CC3(CCC3)C2)c2ccc(C(F)(F)F)nc2n1-c1ccccc1Cl [Example 245, 1-(2-chlorophenyl)-4-(spiro[3.3]heptan-2-ylamino)-7-(trifluoromethyl)pyrido-[2,3-d]pyrimidin-2(1H)-one] | < 0.2 |  |
| O=c1nc(NCC2CC2)c2ccc(C(F)(F)F)nc2n1-c1ccccc1Cl [Example 246] | < 0.2 |  |
| O=c1nc(NCCCO)c2ccc(C(F)(F)F)nc2n1-c1ccccc1Cl [Example 247, 1-(2-chlorophenyl)-4-[(3-hydroxy-propyl)amino]-7-(trifluoromethyl)-pyrido[2,3-d]pyrimidin-2(1H)-one] | < 0.2 |  |
| COCCCNc1nc(=O)n(-c2ccccc2Cl)c2nc(C(F)(F)F)ccc12 [Example 248, 1-(2-chlorophenyl)-4-[(3-methoxy-propyl)amino]-7-(trifluoromethyl)-pyrido[2,3-d]pyrimidin-2(1H)-one] | < 0.2 |  |
| O=c1nc(NCC(F)F)c2ccc(Cl)cc2n1-c1ccc2nccn2c1 [Example 249, 4-[(2,2-difluoroethyl)amino]-7-chloro-1-(4-hydroimidazo[1,2-a]pyridin-6-yl)-hydroquinazolin-2-one] |  | > 10 |
| O=c1nc(N2CC[C@@H](O)C2)c2ccc(Cl)cc2n1-c1ccc2nccn2c1 [Example 250, 4-((3R)-3-hydroxypyrrolidin-1-yl)-7-chloro-1-(4-hydroimidazo[1,2-a]pyridin-6-yl)-hydroquinazolin-2-one] | 0.5 to 1 |  |
| CNc1nc(=O)n(-c2ccc3nccn3c2)c2cc(Cl)ccc12 [Example 251, 7-chloro-1-(4-hydroimidazo[1,2-a]-pyridin-6-yl)-4-(methylamino)hydro-quinazolin-2-one] | 1 to 10 |  |
| Nc1nc(=O)n(-c2ccc3nccn3c2)c2cc(Cl)ccc12 [Example 252, 4-amino-7-chloro-1-(4-hydroimidazo-[1,2-a]pyridin-6-yl)hydroquinazolin-2-one] |  | > 10 |
| O=c1[nH]c(=O)n(-c2nc3ccccc3s2)c2cc(Cl)ccc12 [Example 253, 1-benzothiazol-2-yl-7-chloro-1,3-dihydroquinazoline-2,4-dione] |  | > 10 |
| O=c1[nH]c(=O)n(-c2cccc3[nH]ncc23)c2cc(Cl)ccc12 [Example 254, 1-(1H-indazol-4-yl)-7-chloro-1,3-dihydroquinazoline-2,4-dione] | < 0.2 |  |
| O=c1nc(Nc2ccccn2)c2ccc(C(F)(F)F)nc2n1-c1ccccc1Cl [Example 256, 1-(2-chlorophenyl)-4-(2-pyridylamino)-7-(trifluoromethyl)pyrido[2,3-d]-pyrimidin-2(1H)-one] | < 0.2 |  |
| Cn1ccc(CNc2nc(=O)n(-c3ccccc3Cl)c3nc(C(F)(F)F)ccc23)n1 [Example 257, 1-(2-chlorophenyl)-4-{[(1-methyl-pyrazol-3-yl)methyl]amino}-7-(trifluoro-methyl)-pyrido[2,3-d]pyrimidin-2(1H)-one] | < 0.2 |  |
| CC(C)Nc1nc(=O)n(-c2ccccc2Cl)c2nc(C(F)(F)F)ccc12 [Example 258, 1-(2-chlorophenyl)-4-[(methylethyl)-amino]-7-(trifluoromethyl)pyrido[2,3-d]-pyrimidin-2(1H)-one] | < 0.2 |  |
| CC(C)(C)Nc1nc(=O)n(-c2ccccc2Cl)c2nc(C(F)(F)F)ccc12 [Example 259, 4-[(tert-butyl)amino]-1-(2-chloro-phenyl)-7-(trifluoromethyl)pyrido-[2,3-d]pyrimidin-2(1H)-one] | < 0.2 |  |
| CNc1nc(=O)n(-c2ncccc2C)c2nc(C(F)(F)F)ccc12 [Example 260, 1-(3-methyl(2-pyridyl))-4-(methyl-amino)-7-(trifluoromethyl)pyrido[2,3-d]-pyrimidin-2(1H)-one] | < 0.2 |  |
